# Assay results published in publication PMC5111108, “An insecticide resistance-breaking mosquitocide targeting inward rectifier potassium channels in vectors of Zika virus and malaria” (Scientific Reports, 2016).
# Columns and labels:
# Kir6.2/SUR1 = biological target: T1, Kir6.2/SUR1 (Homo sapiens, UniProt Q14654); experiment: Tl+ flux assay, mammalian Kir6.2/SUR1; format: cell-based
# T1 construct: expressed in transfected cells
# Ae. aegypti = experiment: In vivo diuresis assay in adult female Ae. aegypti (LVP); set-up: species or system Aedes aegypti; conditions: topical 1.7 μg/mg mosquito 2 h before injection of 900 nL K+-PBS, 1 h
# Procedure: The excretory capacity of adult female Ae. aegypti (LVP strain) was measured as described previously. […] The K^+-PBS consisted of the following (in mM): 92.2 NaCl, 47.5 KCl, 10 Na2HPO4 and 2 KH2PO4 (pH 7.5). Each treatment group of 5 mosquitoes was transferred into a separate graduated, packed-cell volume tube (MidSci, St. Louis, MO) and held for 1 h at 28 °C. The volume excreted by the mosquitoes was measured visually via the graduated column at the bottom of the tube. At least 8 replicates (5 mosquitoes per replicate) were performed for each treatment. All mosquitoes were confirmed to be alive at the end of 1 h.
# AeKir1 = biological target: T2, AeKir1 (Aedes aegypti, UniProt L0EQS9); experiment: Two-electrode voltage clamp in Xenopus oocytes expressing AeKir1 or AeKir2B; format: cell-based; conditions: 50 μM, inward K+ currents at -140 mV
# T2 sequence (L0EQS9 1-486): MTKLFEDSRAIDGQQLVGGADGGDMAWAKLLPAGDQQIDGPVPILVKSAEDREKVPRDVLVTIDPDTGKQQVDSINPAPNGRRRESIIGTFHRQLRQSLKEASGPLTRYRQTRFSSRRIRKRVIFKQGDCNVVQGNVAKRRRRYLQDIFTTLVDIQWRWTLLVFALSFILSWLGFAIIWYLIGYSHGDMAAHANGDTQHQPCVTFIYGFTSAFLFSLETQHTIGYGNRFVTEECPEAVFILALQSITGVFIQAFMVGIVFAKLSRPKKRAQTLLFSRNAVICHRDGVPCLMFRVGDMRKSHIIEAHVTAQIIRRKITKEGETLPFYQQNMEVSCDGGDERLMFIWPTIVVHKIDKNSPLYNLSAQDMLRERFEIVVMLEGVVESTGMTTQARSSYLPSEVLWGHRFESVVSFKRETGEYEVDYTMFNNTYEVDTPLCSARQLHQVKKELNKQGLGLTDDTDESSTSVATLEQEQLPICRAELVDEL
# Procedure: Heterologous expression of AeKir1 or AeKir2B was performed in Xenopus laevis oocytes as described previously. Current-voltage (I-V) relationships of oocytes were acquired by clamping the membrane potential (Vm) near the spontaneous, resting Vm and then initiating a voltage-stepping protocol (via the Clampex module of pCLAMP) consisting of 20 mV steps from −140 mV to +40 mV (100 ms each). Additional details are provided in the Supplemental Methods.
# Patch clamp electrophysiology
# Patch electrodes were pulled from silanized 1.5 mm outer diameter borosilicate microhematocrit tubes using a P-1000 Flaming/Brown micropipette puller (Sutter Instrument, Novato CA, USA). Electrode resistance ranged from 2 -4 MΩ. Whole-cell currents were recorded under voltage-clamp conditions using an Axopatch 200B amplifier (Molecular D evices, Sunn yvale, CA). […]
# The voltage clamp was then turned off during solution changes, and when the oocyte reach ed a n ew stead y-state Vm (~90 s) the I-V relationship of the ooc yt e was acquired again. All Vm and Im v alues were digitally recorded (Digidata 1440A Data Acquisition System, Molecular Devices) and the r esulting I-V plots were generated with the Clampfit module of pC LAMP. […]
# […]
# Kir1.1 = biological target: T3, Kir1.1 (Rattus norvegicus, UniProt P35560); experiment: Tl+ flux assay, mammalian Kir1.1; format: cell-based; conditions: read-out: inhibition of Kir1.1
# T3 sequence (P35560 1-391): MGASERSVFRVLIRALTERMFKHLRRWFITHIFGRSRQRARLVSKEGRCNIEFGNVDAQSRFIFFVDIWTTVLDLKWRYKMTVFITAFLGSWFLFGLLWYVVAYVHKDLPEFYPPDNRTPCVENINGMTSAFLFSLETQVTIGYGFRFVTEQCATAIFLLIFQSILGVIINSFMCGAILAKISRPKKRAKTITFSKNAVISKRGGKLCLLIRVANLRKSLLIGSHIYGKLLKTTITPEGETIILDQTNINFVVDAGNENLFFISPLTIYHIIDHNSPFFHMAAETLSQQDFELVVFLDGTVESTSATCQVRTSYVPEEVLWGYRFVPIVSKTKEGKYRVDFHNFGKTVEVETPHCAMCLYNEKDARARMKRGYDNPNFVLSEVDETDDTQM
# T1 sequence (Q14654 whole entry): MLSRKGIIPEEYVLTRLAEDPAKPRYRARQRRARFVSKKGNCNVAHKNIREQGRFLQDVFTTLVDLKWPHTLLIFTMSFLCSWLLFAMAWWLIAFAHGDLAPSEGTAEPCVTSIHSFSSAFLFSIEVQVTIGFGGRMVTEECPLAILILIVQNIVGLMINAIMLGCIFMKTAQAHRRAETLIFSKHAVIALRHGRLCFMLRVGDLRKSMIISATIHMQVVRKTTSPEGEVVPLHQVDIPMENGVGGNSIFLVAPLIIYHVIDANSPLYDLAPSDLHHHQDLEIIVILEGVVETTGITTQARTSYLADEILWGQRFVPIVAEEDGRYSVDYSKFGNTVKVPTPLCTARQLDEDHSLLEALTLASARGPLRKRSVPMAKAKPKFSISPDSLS
# T1 sequence (Q09428 whole entry partner): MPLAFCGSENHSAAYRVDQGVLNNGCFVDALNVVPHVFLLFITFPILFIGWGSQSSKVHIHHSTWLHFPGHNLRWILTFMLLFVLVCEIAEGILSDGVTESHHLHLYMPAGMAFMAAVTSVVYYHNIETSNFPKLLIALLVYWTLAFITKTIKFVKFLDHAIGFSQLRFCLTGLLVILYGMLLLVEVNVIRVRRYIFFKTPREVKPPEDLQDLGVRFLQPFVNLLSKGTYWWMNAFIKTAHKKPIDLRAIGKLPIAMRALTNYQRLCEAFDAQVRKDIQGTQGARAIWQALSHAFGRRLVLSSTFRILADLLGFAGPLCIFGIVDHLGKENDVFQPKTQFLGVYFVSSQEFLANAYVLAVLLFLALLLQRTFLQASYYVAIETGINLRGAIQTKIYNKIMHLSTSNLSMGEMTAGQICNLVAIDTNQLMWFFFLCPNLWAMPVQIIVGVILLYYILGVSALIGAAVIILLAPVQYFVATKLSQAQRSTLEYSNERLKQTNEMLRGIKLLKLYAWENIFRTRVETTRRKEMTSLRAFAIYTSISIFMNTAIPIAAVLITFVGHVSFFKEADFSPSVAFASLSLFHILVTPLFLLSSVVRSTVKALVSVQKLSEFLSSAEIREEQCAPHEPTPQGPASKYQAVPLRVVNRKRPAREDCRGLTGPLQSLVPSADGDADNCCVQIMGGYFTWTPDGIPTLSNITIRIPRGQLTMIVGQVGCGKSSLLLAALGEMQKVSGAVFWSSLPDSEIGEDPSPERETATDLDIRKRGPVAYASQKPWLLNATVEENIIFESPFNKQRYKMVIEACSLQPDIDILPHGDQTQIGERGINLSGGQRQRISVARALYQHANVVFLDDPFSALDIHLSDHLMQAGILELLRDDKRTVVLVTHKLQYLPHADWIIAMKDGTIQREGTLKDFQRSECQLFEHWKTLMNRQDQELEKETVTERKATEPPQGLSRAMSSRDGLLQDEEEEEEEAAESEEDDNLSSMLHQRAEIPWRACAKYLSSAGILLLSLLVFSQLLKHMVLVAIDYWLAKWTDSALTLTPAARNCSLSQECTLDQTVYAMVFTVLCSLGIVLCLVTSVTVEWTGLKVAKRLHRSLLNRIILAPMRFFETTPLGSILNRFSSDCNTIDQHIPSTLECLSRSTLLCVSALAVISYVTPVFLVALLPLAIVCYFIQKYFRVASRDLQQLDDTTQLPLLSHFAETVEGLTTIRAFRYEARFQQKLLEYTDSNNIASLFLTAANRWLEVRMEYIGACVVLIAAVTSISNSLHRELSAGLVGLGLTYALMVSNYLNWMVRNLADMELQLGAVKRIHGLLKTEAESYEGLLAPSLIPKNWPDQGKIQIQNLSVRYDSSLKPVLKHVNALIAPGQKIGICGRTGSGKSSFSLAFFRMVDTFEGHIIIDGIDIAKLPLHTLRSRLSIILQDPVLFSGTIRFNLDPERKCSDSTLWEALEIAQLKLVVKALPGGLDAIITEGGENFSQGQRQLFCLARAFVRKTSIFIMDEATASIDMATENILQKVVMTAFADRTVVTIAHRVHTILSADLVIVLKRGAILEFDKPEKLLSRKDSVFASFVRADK
structure (smiles),measurement,setting,value
"O=C(Cn1nc(C(F)(F)F)c2c1CCCC2)N1CCCc2ccccc21 [VU041, 1-(3,4-dihydroquinolin-1(2H)-yl)-2-(3-(trifluoromethyl)-4,5,6,7-tetrahydro-1H-indazol-1-yl)ethan-1-one]",inhibition at 30 µM,Kir6.2/SUR1,< 10%
same,"diuretic capacity (urine excreted) compared to controls, reduction",Ae. aegypti,~ 51%
same,preference of inhibition AeKir1 vs AeKir2B,AeKir1,preferentially inhibited AeKir1 over AeKir2B
same,inhibition at 30 µM,Kir1.1,< 10%
